Patent publication US20110280812A1, “FLAVOR-ENHANCING AMIDE COMPOUNDS” (priority 2010, published 2011)

Legend:
[1] = tested on: trained sensory panel; experiment: Sensory panel evaluation of MSG-IMP mixture combined with Formulas II-IV; format: in vivo; details: 0.01% MSG and 0.005% IMP; for effect on umami flavor of the MSG-IMP mixture: summary, no concentration stated
Excerpt: The MSG-inosine monophosphate (IMP) mixture (0.01% MSG and 0.005% IMP), an umami composition, was combined with Formulas II-IV at different concentrations and evaluated by a trained sensory panel.

[2] = tested on: trained sensory panel; experiment: Sensory panel evaluation of MSG (0.02%) combined with Formula II; format: in vivo
Description: The flavor compositions of MSG (0.02%) combined with (2E,4E)-N-phenethylundeca-2,4-dien-8,10-diynamide (Formula II) at different concentrations were evaluated by a trained sensory panel using an intensity scale of 0 to 5, where 0=none, 1=minimal, 3=moderate, and 5=intense. Averaged sensory scores were reported in the following: […]

Row | SMILES | Flavor Profile: effect on umami flavor of the MSG-IMP mixture ([1]; amide at 500 ppb) | effect on umami flavor of the MSG-IMP mixture [1] | effect on umami flavor of MSG ([2]; summary over the concentrations tested) | Flavor Profile ([2]; Formula II 0) | Flavor Intensity ([2]; Formula II 0, averaged sensory score, scale 0 to 5 (0=none, 1=minimal, 3=moderate, 5=intense))
1 | C#CC#CCC/C=C/C=C/C(=O)NCCc1ccccc1 [Formula II, (2E,4E)-N-phenethylundeca-2,4-dien-8,10-diynamide] | strongest enhancement | enhanced the umami flavor of the MSG-IMP mixture | enhanced the umami flavor of MSG | – | –
2 | C#CC#CCC/C=C/C=C/C(=O)NCC(C)CC (stereo not drawn) [Formula IV, (2E,4E)-N-(2-methylbutyl)undeca-2,4-dien-8,10-diynamide] | – | enhanced the umami flavor of the MSG-IMP mixture | – | – | –
3 | N[C@@H](CCC(=O)O)C(=O)[O-].[Na+] [MSG, monosodium glutamate] | – | – | – | umami | 1.0
